Values of other authors as cited in US20050282838A1, “Compounds, compositions, and methods” (priority 2003, published 2005).

Tested on: A549 cells
Details: data provided by National Cancer Institute

Row | Structure (SMILES) | GI50
1 | CC(=O)O[C@H]1C(=O)[C@@]2(C)[C@H]([C@H](OC(=O)c3ccccc3)[C@]3(O)C[C@H](OC(=O)[C@H](O)[C@@H](NC(=O)c4ccccc4)c4ccccc4)C(C)=C1C3(C)C)[C@]1(OC(C)=O)CO[C@@H]1C[C@@H]2O [paclitaxel] | 4 nM
2 | NC(=O)NO [hydroxyurea] | 500000 nM
3 | COc1cccc2c1C(=O)c1c(O)c3c(c(O)c1C2=O)C[C@@](O)(C(=O)CO)C[C@@H]3O[C@H]1C[C@H](N)[C@H](O)[C@H](C)O1 [doxorubicin] | 63 nM
4 | O=c1[nH]cc(F)c(=O)[nH]1 [5-fluorouracil] | 1000 nM
